The values below come from patent US9000185B2, “Cycloalkyl ether compounds and their use as BACE inhibitors” (AstraZeneca AB, priority 2012, dated 2015).

SMILES strings stand for the structures.

Assay [1] relates to sAPPβ release in SH-SY5Y cells. Briefly: sAPPβ release assay. The conditions noted are these: 17 h incubation. The class given is cell-based. Here is the method: SH-SY5Y cells were cultured in DMEM/F-12 with Glutamax, 10% FCS and 1% non-essential amino acids and cryopreserved and stored at −140° C. at a concentration of 7.5−9.5×10^6 cells per vial. […] The cell plates were then incubated for 7-24 h at 37° C., 5% CO2. The cell medium was removed, followed by addition of 30 μL compound diluted in DMEM/F-12 with Glutamax, 10% FCS, 1% non-essential amino acids and 1% PeSt to a final conc. of 1% DMSO. The compounds were incubated with the cells for 17 h (overnight) at 37° C., 5% CO2. Meso Scale Discovery (MSD) plates were used for the detection of sAPPβ release. MSD sAPPβ plates were blocked in 1% BSA in Tris wash buffer (40 μL/well) for 1 h on shake at r.t. and washed 1 time in Tris wash buffer (40 μL/well). 20 μL of medium was transferred to the pre-blocked and washed MSD sAPPβ microplates, and the cell plates were further used in an ATP assay to measure cytotoxicity. The MSD plates were incubated with shaking at r.t. for 2 h and the media discarded. 10 μL detection antibody was added (1 nM) per well followed by incubation with shaking at r.t. for 2 h and then discarded. 40 μL Read Buffer was added per well and the plates were read in a SECTOR Imager.

For assay [2], the target named is T1, human β-Secretase (sBACE-Fc) (Homo sapiens (Human), UniProt P56817). Briefly: Diluted TR-FRET assay. The conditions noted are these: diluted TR-FRET assay: 50 times less enzyme, 6.5 h reaction time at r.t.; read-out: IC50 in TR-FRET assay (IC50 from the diluted FRET assay). In kind it is biochemical. Here is the method: (§1) The cDNA for the soluble part of the human β-Secretase (AA 1-AA 460) was cloned using the ASP2-Fc10-1-IRES-GFP-neoK mammalian expression vector. The gene was fused to the Fc domain of IgG1 (affinity tag) and stably cloned into HEK 293 cells.
T1 sequence (P56817 22-460): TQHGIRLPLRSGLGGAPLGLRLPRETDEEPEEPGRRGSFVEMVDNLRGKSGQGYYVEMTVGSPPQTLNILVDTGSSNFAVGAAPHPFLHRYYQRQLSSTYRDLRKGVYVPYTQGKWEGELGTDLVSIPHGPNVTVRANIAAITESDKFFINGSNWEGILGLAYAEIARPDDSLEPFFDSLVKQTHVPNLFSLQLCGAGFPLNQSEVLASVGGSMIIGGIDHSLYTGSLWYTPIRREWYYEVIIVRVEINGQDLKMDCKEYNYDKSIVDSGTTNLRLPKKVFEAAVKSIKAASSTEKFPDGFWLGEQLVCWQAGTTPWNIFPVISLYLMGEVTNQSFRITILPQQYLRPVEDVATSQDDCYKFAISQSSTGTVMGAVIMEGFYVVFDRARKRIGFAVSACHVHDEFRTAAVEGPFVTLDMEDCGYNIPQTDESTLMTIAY
(§2) The enzyme (truncated form) was diluted to 6 μg/mL (stock 1.3 mg/mL) and the TruPoint BACE1 Substrate to 200 nM (stock 120 μM) in reaction buffer (NaAcetate, chaps, triton x-100, EDTA pH4.5). Enzyme and compound in dimethylsulphoxide (final DMSO concentration 5%) was mixed and pre-incubated for 10 minutes at RT. Substrate was then added and the reaction was incubated for 15 minutes at RT. The reaction was stopped with the addition of 0.35 vol Stop solution (NaAcetate, pH 9). The fluorescence of the product was measured on a Victor II plate reader with excitation wavelengths of 340-485 nm and emission wavelengths of 590-615 nm. The final concentration of the enzyme was 2.7 μg/ml; the final concentration of substrate was 100 nM (Km of ˜250 nM). The dimethylsulphoxide control, instead of test compound, defined the 100% activity level and 0% activity was defined by wells lacking enzyme (replaced with reaction buffer) or by a saturating dose of a known inhibitor, 2-amino-6-[3-β-methoxyphenyl)phenyl]-3,6-dimethyl-5H-pyrimidin-4-one.
Compounds with a high affinity were further tested in a diluted TR-FRET assay, conditions as described above for the TR-FRET assay, but with 50 times less enzyme and a 6.5 h long reaction time at r.t. in the dark.
(Time-resolved FRET reads energy transfer from a long-lived donor to a nearby acceptor.)

Assay [3] has as its target T1, human β-Secretase (sBACE-Fc). Put plainly: TR-FRET assay. The conditions noted are these: standard TR-FRET assay, 15 minutes reaction at RT. In kind it is biochemical. Here is the method: The β-secretase enzyme used in the TR-FRET is prepared as follows:
as §1, §2

For orientation: IC50 means the midpoint of a concentration-inhibition curve. Turning to `CO[C@H]1CC[C@]2(CC1)Cc1ccc(OCC3CC3)cc1[C@@]21N=C(C)C(N)=N1` (single isomer, unassigned; isomer 1) [4, isomer 1], the results for the IC50 in assay [1] and in assay [2] were 0.9 nM and 3.7 nM, respectively.

`CO[C@H]1CC[C@]2(CC1)Cc1ccc(OCC3CCC3)cc1[C@@]21N=C(C)C(N)=N1` (single isomer, unassigned; isomer 1) [7, isomer 1]: the IC50 in assay [1] is 1.3 nM.

In turn, `CO[C@H]1CC[C@]2(CC1)Cc1ccc(OCC3CC3)cc1[C@]21N=C(C)C(N)=N1` (single isomer, unassigned; isomer 2) [4, isomer 2] had an IC50 in assay [3] of over 5000 nM.

Take `CO[C@H]1CC[C@]2(CC1)Cc1ccc(OCC3(C)CC3)cc1C21N=C(C)C(N)=N1` (stereo partly drawn) [Example 1, (1r,4r)-4-Methoxy-5″-methyl-6′-[(1-methylcyclopropyl)methoxy]-3′H-dispiro[cyclohexane-1,2′-indene-1′,2″-imidazol]-4″-amine]: the IC50 in assay [1] (Homo sapiens) was determined as 2.8 nM; in assay [2] it was 18 nM.

Consider `CO[C@H]1CC[C@]2(CC1)Cc1ccc(OCC3CC(F)(F)C3)cc1C21N=C(C)C(N)=N1` (stereo partly drawn) [Example 2, (1r,4r)-6′-[(3,3-Difluorocyclobutyl)methoxy]-4-methoxy-5″-methyl-3′H-dispiro[cyclohexane-1,2′-indene-1′,2″-imidazol]-4″-amine], for which the figures for the IC50 in assay [3] and in assay [1] (Homo sapiens) were 50 nM and 8.4 nM, respectively.

Consider `CO[C@H]1CC[C@]2(CC1)Cc1ccc(OCC3CC3)cc1C21N=C(C)C(N)=N1` (stereo partly drawn) [Example 3, (1r,4r)-6′-(Cyclopropylmethoxy)-4-methoxy-5″-methyl-3′H-dispiro[cyclohexane-1,2′-indene-1′,2″-imidazol]-4″-amine], for which the IC50 in assay [1] (Homo sapiens) came to 1.6 nM; in assay [2], 7.4 nM.

Regarding `CO[C@H]1CC[C@]2(CC1)Cc1ccc(OCC3CC3(F)F)cc1C21N=C(C)C(N)=N1` (stereo partly drawn) [Example 5, (1r,4r)-6′-[(2,2-Difluorocyclopropyl)methoxy]-4-methoxy-5″-methyl-3′H-dispiro[cyclohexane-1,2′-indene-1′,2″-imidazol]-4″-amine], the IC50 was 2.3 nM in assay [1] (Homo sapiens) and 13 nM in assay [2].

In assay [1] (Homo sapiens), `CO[C@H]1CC[C@]2(CC1)Cc1ccc(OCC3CCC3)cc1C21N=C(C)C(N)=N1` (stereo partly drawn) [Example 6, (1r,4r)-6′-(Cyclobutylmethoxy)-4-methoxy-5″-methyl-3′H-dispiro[cyclohexane-1,2′-indene-1′,2″-imidazol]-4″-amine] registered an IC50 of 1.5 nM.

Consider `CO[C@H]1CC[C@]2(CC1)Cc1ccc(OCCC3CC3)cc1C21N=C(C)C(N)=N1` (stereo partly drawn) [Example 8, (1r,4r)-6′-(2-Cyclopropylethoxy)-4-methoxy-5″-methyl-3′H-dispiro[cyclohexane-1,2′-indene-1′,2″-imidazol]-4″-amine], for which the IC50 was 0.8 nM in assay [1] (Homo sapiens) and 3.7 nM in assay [2].
